Patent publication US11939300B2, “Compounds and methods for treating autoimmune disorders by targeting HLA-DQ2” (ImmunoMolecular Therapeutics, Inc., priority 2020, dated 2024)

Test system: HLA-DQ2
Assay: Inhibition of IL-2 secretion by TCR transductants stimulated by α-gliadin peptides presented by HLA-DQ2 expressing K562 cells (ELISA)
Format: cell-based, human
Settings: for DQ2 IL2 Maximal % Inhibition: IL-2 secretion, at the concentration given in brackets; for concentration at which the compound exhibited maximum % inhibition (DQ2 IL2): from dose-response curve, figure in brackets in the cell
Procedure: Three commercially available analogues of the DQ2 binding molecules of the invention were tested for their ability to inhibit stimulation of T cell receptor (TCR) transductants in the presence of HLA-DQ2 expressing cells presenting known α-gliadin epitopes.
Using a previously published in vitro assay (Ostrov D, et al. Methyldopa blocks MHC class II binding to disease specific antigens in autoimmune diabetes. J Clin Invest. 2018:128(5)) we measured the ability of these DQ2 binding analogues to inhibit interleukin-2 (IL-2) secretion by TCR transductants stimulated by α-gliadin peptides presented by HLA-DQ2. Individual TCR transductants (recognizing α I-gliadin or α II-gliadin) were cultured with a gliadin peptide plus the small molecule analogues in the presence of HLA-DQ2 expressing K562 cells serving as antigen presenting cells. TCR transductants cultured with no gliadin peptide served as the negative control, and incubation with an anti-CD3 antibody (eBioscience; clone 2C11) served as a positive control for the TCR transductant. Secreted IL-2 in the culture supernatant was measured using a highly sensitive enzyme-linked immunosorbent assay (ELISA). […] Assays for effects on cell viability and for specificity, assayed in the absence of gliadin peptide or in the presence of a stimulating anti-CD3 antibody, were performed. A=71-100%; B=41-70%; C=11-40%; D=0-10%, NT=Not tested.

[1] = TCR transductants (α I- or α II-gliadin) + gliadin peptide + HLA-DQ2 K562 cells
[2] = Table 2, TCR transductants + gliadin peptide + HLA-DQ2 K562 cells

| Structure (SMILES) | DQ2 IL2 Maximal % Inhibition [1] | concentration at which the compound exhibited maximum % inhibition (DQ2 IL2) [µM] | DQ2 IL2 Maximal % Inhibition [2] | concentration at which the compound exhibited maximum % inhibition (DQ2 IL2) (Table 2) [µM] |
| --- | --- | --- | --- | --- |
| CCCCc1ccc(C(=O)NC2CCc3n[nH]c(=O)cc3C2)cc1 (stereo not shown) [Compound 5, 4-n-butyl-N-(3-oxo-5,6,7,8-tetrahydrocinnolin-6-yl)benzamide] | D (D=0-10%) | 50 |  |  |
| O=C(NC1CCc2n[nH]c(=O)cc2C1)C1CC1 (stereo not shown) [Compound 11] | D (D=0-10%) | 200 |  |  |
| CC(C)c1ccc(C(=O)NC2CCc3nn(Cc4ccccc4)c(=O)cc3C2)cc1 (stereo not shown) [Compound 50] | A (A=71-100%) | 200 |  |  |
| CC(C)c1ccc(C(=O)NC2CCc3nn(C4CCOCC4)c(=O)cc3C2)cc1 (stereo not shown) [Compound 55] | A (A=71-100%) | 200 |  |  |
| CC(=O)NC1CCc2nn(C)c(=O)cc2C1 (stereo not shown) [Compound 18] | C (C=11-40%) | 100 |  |  |
| CCc1ccc(C(=O)NC2CCc3nn(CC)c(=O)cc3C2)cc1 (stereo not shown) [Compound 36] | B (B=41-70%) | 200 |  |  |
| CCCc1ccc(C(=O)NC2CCc3n[nH]c(=O)cc3C2)cc1 (stereo not shown) [Compound 3] | B (B=41-70%) | 100 |  |  |
| CCC(=O)NC1CCc2n[nH]c(=O)cc2C1 (stereo not shown) [Compound 7] | D (D=0-10%) | 200 |  |  |
| CC(C)c1ccc(C(=O)NC2CCc3nn(CC4CC4)c(=O)cc3C2)cc1 (stereo not shown) [Compound 45] | A (A=71-100%) | 200 |  |  |
| CC(C)c1ccc(C(=O)NC2CCc3nn(C4CCCC4)c(=O)cc3C2)cc1 (stereo not shown) [Compound 59] | A (A=71-100%) | 200 |  |  |
| Cn1nc2c(cc1=O)CC(NC(=O)C(C)(C)C)CC2 (stereo not shown) [Compound 24] | C (C=11-40%) | 100 |  |  |
| CNC(=O)Cn1nc2c(cc1=O)CC(NC(=O)c1ccc(C(C)C)cc1)CC2 (stereo not shown) [Compound 42] | A (A=71-100%) | 200 |  |  |
| CC(C)(C)c1ccc(C(=O)NC2CCc3n[nH]c(=O)cc3C2)cc1 (stereo not shown) [Compound 13] | D (D=0-10%) | 0.1 |  |  |
| Cn1nc2c(cc1=O)CC(NC(=O)C1CCCCC1)CC2 (stereo not shown) [Compound 19] | B (B=41-70%) | 100 |  |  |
| Cn1nc2c(cc1=O)CC(NC(=O)C1CC1)CC2 (stereo not shown) [Compound 25] | C (C=11-40%) | 200 |  |  |
| CC(C)Oc1ccc(C(=O)NC2CCc3nn(C)c(=O)cc3C2)cc1 (stereo not shown) [Compound 62] |  |  | A (A=71-100%) | 200 |
| CC(C)c1ccc(C(=O)NC2CCc3nn(CC4CCCCC4)c(=O)cc3C2)cc1 (stereo not shown) [Compound 49] | A (A=71-100%) | 200 |  |  |
| Cn1nc2c(cc1=O)CC(NC(=O)c1ccc(F)cc1)CC2 (stereo not shown) [Compound 32] | C (C=11-40%) | 200 |  |  |
| CCCn1nc2c(cc1=O)CC(NC(=O)c1ccc(CC)cc1)CC2 (stereo not shown) [Compound 37] | B (B=41-70%) | 200 |  |  |

| Structure (SMILES) | DQ2 IL2 Maximal % Inhibition [1] | concentration at which the compound exhibited maximum % inhibition (DQ2 IL2) [µM] | DQ2 IL2 Maximal % Inhibition [2] | concentration at which the compound exhibited maximum % inhibition (DQ2 IL2) (Table 2) [µM] |
| --- | --- | --- | --- | --- |
| CC(C)c1ccc(C(=O)NC2CCc3nn(C(C)C)c(=O)cc3C2)cc1 (stereo not shown) [Compound 44] | A (A=71-100%) | 200 |  |  |
| CC(C)c1ccc(C(=O)NC2CCc3nn(CC(=O)O)c(=O)cc3C2)cc1 (stereo not shown) [Compound 43] | A (A=71-100%) | 200 |  |  |
| CC(C)C(=O)NC1CCc2n[nH]c(=O)cc2C1 (stereo not shown) [Compound 15] | C (C=11-40%) | 100 |  |  |
| O=C(NC1CCc2n[nH]c(=O)cc2C1)c1ccc(C2CCCCC2)cc1 (stereo not shown) [Compound 14] | B (B=41-70%) | 200 |  |  |
| CC(C)(C)C(=O)NC1CCc2n[nH]c(=O)cc2C1 (stereo not shown) [Compound 10] | D (D=0-10%) | 200 |  |  |
| O=C(NC1CCc2n[nH]c(=O)cc2C1)c1ccc(Cl)cc1 (stereo not shown) [Compound 29] | B (B=41-70%) | 200 |  |  |
| COCCn1nc2c(cc1=O)CC(NC(=O)c1ccc(C(C)C)cc1)CC2 (stereo not shown) [Compound 51] | B (B=41-70%) | 200 |  |  |
| CC(C)c1ccc(C(=O)NC2CCc3nn(CC4CCC4)c(=O)cc3C2)cc1 (stereo not shown) [Compound 48] | A (A=71-100%) | 100 |  |  |
| CCCCC(=O)NC1CCc2n[nH]c(=O)cc2C1 (stereo not shown) [Compound 9] | C (C=11-40%) | 100 |  |  |
| CCCC(=O)NC1CCc2n[nH]c(=O)cc2C1 (stereo not shown) [Compound 8] | D (D=0-10%) | 200 |  |  |
| CC(C)c1ccc(C(=O)NC2CCc3nn(C4CCC4)c(=O)cc3C2)cc1 (stereo not shown) [Compound 56] | A (A=71-100%) | 200 |  |  |
| Cn1nc2c(cc1=O)CC(NC(=O)c1cccc(C(F)(F)F)c1)CC2 (stereo not shown) [Compound 63] |  |  | A (A=71-100%) | 200 |
| CCCCn1nc2c(cc1=O)CC(NC(=O)c1ccc(C(C)C)cc1)CC2 (stereo not shown) [Compound 46] | B (B=41-70%) | 200 |  |  |
| CCc1ccc(C(=O)NC2CCc3nn(CC(N)=O)c(=O)cc3C2)cc1 (stereo not shown) [Compound 38] | A (A=71-100%) | 200 |  |  |
| O=C(NC1CCc2n[nH]c(=O)cc2C1)c1ccc(I)cc1 (stereo not shown) [Compound 31] | C (C=11-40%) | 200 |  |  |
| O=C(NC1CCc2n[nH]c(=O)cc2C1)C1CCCCC1 (stereo not shown) [Compound 12] | C (C=11-40%) | 0.1 |  |  |
| O=C(NC1CCc2n[nH]c(=O)cc2C1)c1ccc(Br)cc1 (stereo not shown) [Compound 30] | C (C=11-40%) | 200 |  |  |
| CC(C)c1ccc(C(=O)NC2CCc3n[nH]c(=O)cc3C2)cc1 (stereo not shown) [Compound 4] | A (A=71-100%) | 200 |  |  |
| O=C(NC1CCc2n[nH]c(=O)cc2C1)c1ccccc1 (stereo not shown) [Compound 1] | C (C=11-40%) | 50 |  |  |
